# Experiments:
# P. aeruginosa MB447 = assay: MIC against XDR strain MB447; assay type: cell-based, Pseudomonas aeruginosa; conditions: medium not stated
# Experimental: MIC assays of PPMOs were determined according to the Clinical and Laboratory Standards Institute (CLSI) broth microdilution method ([29]), using the method previously described ([14]). The assays were performed in 96-well tissue culture plates (Thermo Fisher Scientific, Waltham, MA). All reagents were analytical grade and were obtained from Sigma-Aldrich (St. Louis, MO), Acros Organics (Geel, Belgium), UT Southwestern Campus Pharmacy, or Thermo Fisher Scientific (Waltham, MA). Morpholinopropanesulfonic acid (MOPS) minimal medium was prepared as previously described ([30], [31]).
# [1] = system: P. aeruginosa strain MB447; assay: Acute pneumonia mouse model with XDR strain, survival; assay type: in vivo, Pseudomonas aeruginosa in BALB/c mice; conditions: for survival at day 4: 15 mg/kg intratracheal at 15 min, then intranasal at 24 h (legend: 6 h); for Median survival: 15 mg/kg, two treatments, Kaplan-Meier
# Experimental: To test whether PPMOs retained in vivo activity in an XDR strain, we utilized the AcpP-RXR(5′) PPMO in the acute pneumonia model using XDR P. aeruginosa strain MB447, a carbapenem-resistant bloodstream isolate. […] Mice were infected intratracheally followed by intratracheal treatment 15 min postinfection with either 15 mg/kg of AcpP-RXR(5′), scrambled control PPMO (Scr), PBS, 15 mg/kg of meropenem, or 15 mg/kg of tobramycin, and the bacterial burden was determined at 24 h postinfection.
# Mice were infected intratracheally with P. aeruginosa strain MB447 (∼10^7 CFU/mouse). (A) Mice were treated intratracheally 15 min postinfection with 15 mg/kg/24 h of AcpP-RXR(5′) and the corresponding scrambled PPMO, tobramycin, and meropenem and were euthanized at 24 h, and lung tissues were processed as previously described. All samples were plated for viable CFU on PIA. Each symbol represents the value for a single mouse. Error bars represent SEM. Statistical differences were determined using one-way ANOVA and indicated as follows: ****, P < 0.0001; **, P < 0.01; *, P < 0.05. (B) Mice were treated intratracheally 15 min postinfection and intranasally at 6 h postinfection (a total of two treatments) with the same compounds and doses. Mice were monitored for 4 days postinfection.
# P. aeruginosa strains PA103, PA103 P1-lux, and MB447 were grown on Pseudomonas isolation agar (PIA) for 16 to 18 h at 37°C and suspended in PBS to an optical density at 600 nm (OD600) of 0.5, corresponding to ∼10^9 CFU/ml. Inocula were adjusted spectrophotometrically to obtain the desired sublethal challenge dose in a volume of 25 μl. Six- to 8-week-old female BALB/c mice (Jackson Laboratories, Bar Harbor, ME) were anesthetized by intraperitoneal injection of 0.2 ml of a mixture of ketamine (6.7 mg/ml) and xylazine (1.3 mg/ml). Mice were infected by noninvasive intratracheal instillation of dilutions of P. aeruginosa strain as indicated ([34]).
# [2] = system: P. aeruginosa PAO1 biofilm; assay: Established biofilm on MBEC pegs, crystal violet (total biomass); assay type: cell-based, Pseudomonas aeruginosa; conditions: PAO1, 24 h biofilm, dosed at 24, 32, 40 h, read at 48 h; tobramycin 0.625 µg/ml, piperacillin-tazobactam 0.25 µg/ml, PPMO 0.25 µM (legend 2.5 μM)
# Experimental: We previously reported that treatment with PPMO alone was effective in both preventing and decreasing established P. aeruginosa biofilm in vitro ([14]). Here, we aimed to determine whether combining a PPMO with a traditional antibiotic (that also had minimal biofilm-inhibitory activity on its own) could enhance biofilm eradication compared to either drug alone. Biofilms were established in minimal biofilm eradication concentration (MBEC) plates by growing P. aeruginosa PAO1 at 37°C. At 24 h postinoculation, lids with established biofilm were moved to new 96-well plates containing fresh media with either antibiotic only (0.625 µg/ml tobramycin or 0.25 µg/ml piperacillin-tazobactam), PPMO only [0.25 µM either AcpP-RXR(3′) or RpsJ-RXR(3′)], or PPMO plus antibiotic as indicated. We hypothesized that the combination of antibiotics and PPMOs targeting a similar cellular process, such as bacterial cell wall (AcpP and piperacillin-tazobactam) or protein synthesis (RpsJ and tobramycin) would enhance biofilm eradication.
# FIG 1 PPMOs in combination with traditional antibiotics display enhanced activity and reduce established P. aeruginosa strain PAO1 biofilm. […] Statistical differences were determined by one-way ANOVA and indicated as follows: ***, P < 0.0001; **, P < 0.001; *, P < 0.05; n.s., not significant. […]
# [3] = system: P. aeruginosa PAO1 biofilm; assay: Established biofilm on MBEC pegs, viability (resazurin, CFU); assay type: cell-based, Pseudomonas aeruginosa; conditions: PAO1, 24 h biofilm, dosed at 24, 32, 40 h, read at 48 h; tobramycin 0.625 µg/ml, PPMO 0.25 µM (legend 2.5 μM)
# Experimental: PAO1 biofilms were established on MBEC pegs for 24 h and then treated either with 0.625 μg/ml tobramycin, 0.25 μg/ml piperacillin/tazobactam (Pip/Tazo), 2.5 μM AcpP-RXR(3′), 2.5 μM RpsJ-RXR(3′) or with a combination of PPMO and antibiotic at 24, 32, and 40 h. […]
# The viability and metabolic state of biofilm-associated cells were determined using resazurin dye ([17]). […] This time point was previously optimized based on the time needed for the untreated control cells to reach maximum fluorescence. The plates were read at an excitation of 530 nm and emission of 590 nm on a Synergy BioTek plate reader. Viable CFU from the biofilms were also determined by rinsing MBEC pegs in PBS three times to remove planktonic bacteria, followed by cutting the peg off the base with a hot scalpel and placing it in a 14 ml Falcon tube containing 1 ml PBS. […]
# P. aeruginosa PA103 = assay: Acute pneumonia mouse model, intraperitoneal PPMO alone or with tobramycin, survival; assay type: in vivo, Pseudomonas aeruginosa in BALB/c mice; conditions: intraperitoneal at 6, 12 and 24 h; Kaplan-Meier
# Experimental: Mice were treated by intraperitoneal injection of RpsJ-RXR(3′) (15 mg/kg), tobramycin (15 mg/kg), scrambled PPMO (15 mg/kg) alone or in combination (scrambled PPMO plus tobramycin or RpsJ PPMO plus tobramycin) at 6, 12, and 24 h for a total of three treatments after intratracheal infection with a […] dose of P. aeruginosa PA103. Mice were monitored for up to 4 days postinfection. […] Mice treated with RpsJ-RXR(3′) or tobramycin had 50 to 60% increased survival compared to PBS or scrambled control, respectively.
# FIG 4 PPMOs work in concert with traditional antibiotics to improve survival in acute lung model of infection. […] Mice were monitored for 4 days postinfection. Results are represented by Kaplan-Meier survival curves and were analyzed by log rank test (log rank test, RpsJ versus PBS, P < 0.001; RpsJ versus Scr, P < 0.05; RpsJ versus RpsJ plus tobramycin, P < 0.05; Scr versus Scr plus tobramycin, P = 0.1778. Median survival: PBS, 36 h; Scr, 48 h; RpsJ, tobramycin, and combination treatments, undefined). […]
# Mice were infected as described above and treated either intraperitoneally or intranasally with 15 mg/kg/treatment of PPMO or corresponding controls as indicated. Animals were treated at 6, 12, or 24 h postinfection, with a total of three doses and were monitored for survival up to 4 days postinfection.
Molecule,MIC of strain MB447 against antibiotic (P. aeruginosa MB447) [µM],survival at day 4 [1] [%],Median survival [1],reduction of established biofilm mass compared to untreated [2],decrease of biofilm cell viability compared to no treatment [3] [%],Median survival (P. aeruginosa PA103)
C[C@@H](O)[C@H]1C(=O)N2C(C(=O)O)=C(S[C@@H]3CN[C@H](C(=O)N(C)C)C3)[C@H](C)[C@H]12 [meropenem],32,0,34 h,,,
piperacillin-tazobactam,,,,no impact on established biofilm,,
NC[C@H]1O[C@H](O[C@H]2[C@H](O)[C@@H](O[C@H]3O[C@H](CO)[C@@H](O)[C@H](N)[C@H]3O)[C@H](N)C[C@@H]2N)[C@H](N)C[C@@H]1O [tobramycin],8,67,undefined,50%,50,undefined

# Reference: PMC7844538, “Peptide-Conjugated Phosphorodiamidate Morpholino Oligomers Retain Activity against Multidrug-Resistant Pseudomonas aeruginosa In Vitro and In Vivo” (mBio, 2021)
